Data set [1] is classed as physicochemical. To be noted: for % Estriol extracted, Tracer only: ^125I estriol, no unlabelled estriol; for % Estriol extracted, with 250 ng/ml: with 250 ng/ml unlabelled estriol. From the text:
The choice of the preferred solvent for each system is made by carrying out a simple experiment in each case as illustrated hereinafter.

For data set [2] the following is noted: cited from earlier work.
Another data set relates to RIA kit for estradiol. Description: Estradiol 17β (^3H) RIA, kit protocol vs solvent extraction (Example 5). The following applies: for % B/Bo Expt. A (kit): kit protocol; for % B/Bo Expt. B (solvent extn.): solvent extraction. The format is binding. How it is done:
A commercially available (^3 H) RIA kit for estradiol supplied by Isopac was tested by the solvent extraction method as follows:
All kit components were prepared according to kit directions. One experiment (A) was carried out exactly according to the kit protocol. A second, parallel experiment (B) was performed according to kit protocol up to, and including, the incubation step. […] After phase separation (about 10 minutes) the upper solvent phase, containing the free estradiol, was transferred to scintillation vials to which 5 ml of scintillation liquid (Instagel II, trademark of Packard) were added and the radioactivity determined.

For data set [3], the system named is phenobarbitone antiserum R-66X. Nature of the data set: Phenobarbitone RIA with solvent extraction (Example 6). The format is binding. The following applies: mean of duplicates; for % B/Bo MIBK: methyl isobutyl ketone; for % B/Bo TBME: tert-butyl methyl ether. On the procedure: The components used for a phenobarbitone RIA were a (^3 H) phenobarbitone tracer (N.E.N), a phenobarbitone antiserum R-66X (Technion) and tris-maleate assay buffer (pH 7.3, 0.078M Tris, 0.035M maleic acid) containing 0.1% PVP (polyvinyl pyrrolidone).
The tracrer, 100 μl (approx. 10 nono Ci/tube) was added to test-tubes followed by the addition of 50 μl phenobarbitone standards and 100 μl of diluted antiserum. All test-tubes were incubated overnight at 4° C. After incubation, 0.5 ml of solvent (tert-butyl methyl ether, TBME in one experiment and, MIBK in a parallel experiment) were added to each assay tube and vortexed for 20-30 seconds. After phase separation on standing, the aqueous phase was transferred to scintillation vials for radioactivity determination. The following Table 4, summarizes mean values (of duplicates) expressed as % B/Bo.

For data set [4], the system named is anti-THC antiserum, R-41Va. Nature of the data set: THC RIA with solvent extraction or charcoal separation (Example 7). The format is binding. To be noted: for % B/Bo Charcoal: dextran-coated charcoal. On the procedure:
An assay using the solvent extraction method was developed for tetrahydrocannabinol (THC) metabolites using a (^3 H)-THC tracer (Amersham). All assay components were prepared in tris-maleate buffer (pH 7.3) containing 0.2% PVP and 0.1% Triton X450 (trademark of Rohm and Haas). […]. The solvent, 500 μl, was added to the assay tubes and vortexed for 20-30 seconds. […]. The following Table 5 summarizes the results, expressed as % B/Bo for the three experiments.

Read-outs that look alike come from different tables or passages of the source.

In the case of `ClCc1ccccc1` [Benzyl chloride], in data set [1], the “% Estriol extracted, Tracer only” value is on record as 78-80% and the “% Estriol extracted, with 250 ng/ml” value is recorded as 76-78%. Further, the “% solubility in water” value in data set [2] (in water) is on record as 0.05%.

`ClC(Cl)(Cl)Cl` [Carbon tetrachloride, carbon tetrachloride]: in data set [1], the “% Estriol extracted, Tracer only” value is 35-38% and the “% Estriol extracted, with 250 ng/ml” value is on record as 38-40%. For the same compound, the “% solubility in water” value in data set [2] (in water) is on record as 0.08%.

With `ClCCl` [Dichloromethane, dichloromethane], in data set [1], the “% Estriol extracted, Tracer only” value is recorded as 45-47%. In addition, the “% solubility in water” value in data set [2] (water) was 2%.

Consider `C[C@]12CC[C@@H]3c4ccc(O)cc4CC[C@H]3[C@@H]1CC[C@@H]2O` [Estradiol, Estradiol 17β], for which the “% B/Bo Expt. A (kit)” value stood at 89.0% in the data set on RIA kit for estradiol (standard 25.0 pg/ml); 85.0% in the data set with RIA kit for estradiol (standard 50.0 pg/ml); 59.0% with RIA kit for estradiol (standard 100.0 pg/ml); 40.0% in the data set with RIA kit for estradiol (standard 200.0 pg/ml); 21.0% with RIA kit for estradiol (standard 400.0 pg/ml). Also, the “% B/Bo Expt. B (solvent extn.)” value with RIA kit for estradiol (standard 25.0 pg/ml) was 89.0%; with RIA kit for estradiol (standard 50.0 pg/ml) it was 76.0%; with RIA kit for estradiol (standard 100.0 pg/ml), 40.0%; with RIA kit for estradiol (standard 200.0 pg/ml) it was 23.0%; in the data set with RIA kit for estradiol (standard 400.0 pg/ml), 14.0%.

Turning to `CCOC(C)=O` [Ethyl acetate, ethyl acetate], in data set [1], the “% Estriol extracted, Tracer only” value is reported as 90-94% and the “% Estriol extracted, with 250 ng/ml” value is 90-92%. For the same compound, the “% solubility in water” value in data set [2] (in water) is 3.3%.

With `CC(=O)CC(C)C` [Methyl isobutyl ketone, methyl isobutyl ketone], in data set [1], the “% Estriol extracted, Tracer only” value was 91-94% and the “% Estriol extracted, with 250 ng/ml” value is recorded as 90-94%. Moreover, the “% solubility in water” value in data set [2] (in water) is on record as 1.9%.

For the compound `CCC1(c2ccccc2)C(=O)NC(=O)NC1=O` [Phenobarbitone, phenobarbitone], the “% B/Bo MIBK” value is 73.0% in data set [3] (standard 5 ng/ml); 63.0% in data set [3] (standard 10 ng/ml); 45.0% in data set [3] (standard 25 ng/ml); 30.0% in data set [3] (standard 50 ng/ml); 19.0% in data set [3] (standard 100 ng/ml). Also, the “% B/Bo TBME” value in data set [3] (standard 5 ng/ml) is given as 96.5%; in data set [3] (standard 10 ng/ml), 79.0%; in data set [3] (standard 25 ng/ml), 52.0%; in data set [3] (standard 50 ng/ml), 30.0%; in data set [3] (standard 100 ng/ml), 23.0%.

As for `CCCCCc1cc(O)c2c(c1)OC(C)(C)[C@@H]1CCC(C)=C[C@@H]21` [THC, tetrahydrocannabinol], the “% B/Bo MIBK” value in data set [4] (standard 1 ng/ml) is 98%; in data set [4] (standard 2 ng/ml) it was 84%; in data set [4] (standard 4 ng/ml), 68%; in data set [4] (standard 10 ng/ml), 30%; in data set [4] (standard 20 ng/ml) it was 18%; in data set [4] (standard 40 ng/ml) it was 8%. The “% B/Bo Charcoal” value was found to be 98% in data set [4] (standard 1 ng/ml); 86% in data set [4] (standard 4 ng/ml); 55% in data set [4] (standard 10 ng/ml); 32% in data set [4] (standard 20 ng/ml); 21% in data set [4] (standard 40 ng/ml). The “% B/Bo t-amyl alcohol” value in data set [4] (standard 1 ng/ml) is given as 90%; in data set [4] (standard 2 ng/ml) it was 86%; in data set [4] (standard 4 ng/ml) it was 77%; in data set [4] (standard 10 ng/ml) it was 36%; in data set [4] (standard 20 ng/ml), 15%; in data set [4] (standard 40 ng/ml), 6%.

With `CCN(CC)CC` [Triethyl amine], in data set [1], the “% Estriol extracted, Tracer only” value is recorded as 86-91% and the “% Estriol extracted, with 250 ng/ml” value is on record as 86-90%.

Source of the values: patent publication US4645747A, “Specific binding assay technique” (priority 1979, dated 1987).
